Results taken from US12486303B2, “Use of peptide for inhibiting functions and expressions of multiple disease biomarkers” (NIBEC CO., LTD., priority 2018, dated 2025).
Peptide text beside a SMILES is read from it.

Tests used:
HDAC5 protein = target: T1, HDAC5 protein (Homo sapiens, UniProt Q9UQL6); test: Biacore T200 binding affinity to immobilised HDAC5 protein; settings: CM5 chip, 1:1 binding model; for kon: read-out: ka
T1 construct: purchased Abcam
Method: For this purpose, HDAC5 protein (Abcam, MA, USA) was dissolved in sodium acetate buffer (pH 4.5), and was bound to a dextran-covered sensor chip surface (CM5 chip) using N-hydroxysuccinimide (NHS) and N-ethyl-N0-(3-dimethylaminopropyl)-carbodiimide hydrochloride (EDAC) as crosslinkers. The unreacted active group of dextran was blocked by the addition of ethanolamine (1M) thereto. The number of HDAC5 binding to the chip was measured as 4440RU (1000 RU=1 ng/mm^2). […] Rate constants for association (ka) and dissociation (kd), and a dissociation constant (KD) were calculated using BIAevaluation software and a 1:1 binding model.

[1] = system: collagen-induced arthritis (CIA) rats; test: Collagen-induced arthritis animal model; format: in vivo, Wistar rats
Text: In order to determine whether or not the peptide according to the present invention is effective in treating rheumatoid arthritis in vivo, the effect of treating arthritis thereof was detected in a collagen-induced arthritis animal model. For this purpose, female Wistar rats (105-135 g, n=67) were purchased from Harlan Co. Ltd. (Indianapolis, IN, USA). All rats were bred in a pathogen-free environment and sterilized standard rat feed (Harlan Co. Ltd, USA) and water were freely fed to the rats. Animal experiments were conducted with the approval of the Institutional Animal Care and Use Committee (IACUC) of Seoul National University. Collagen-induced arthritis was induced in a known manner (Nishikawa et al., Arthritis and rheumatism. 2003; 48:2670-81).
Specifically, 500 μg of bovine collagen type II was injected along with a mixture of 0.5 mL of 0.1 M acetic acid and 0.5 mL of Freund's incomplete adjuvant into rat muscle. On the 7th day, 0.5 mL of 0.1 M acetic acid and 0.5 mL of Freund's incomplete adjuvant were further inoculated along with 250 μg of bovine collagen type II to produce collagen-induced arthritis (CIA) rats. The rats were classified into a CIA-induced group (n=10), a CIA-induced group injected with a low concentration of the peptide of SEQ ID NO: 1 (LD AIP, 15 mg/kg, n=10), a CIA-induced group injected with a high concentration of the peptide of SEQ ID NO: 1 (HD AIP, 30 mg/kg, n=10), a CIA-induced group injected with etanercept (Enbrel) (10 mg/kg, n=10), and a normal group (n=6). From 28 days after the first collagen injection, the peptide of SEQ ID NO: 1 was injected subcutaneously into the back of the neck twice a week over 4 weeks. Etanercept was injected intraperitoneally three times a week over 4 weeks. Swelling of both hind paws was measured twice using a plethysmometer (LE7500 N, IWOO Scientific Corporation, KOREA) on day 22, 29, 31, 35, 38, 42, 45, 49, 52, and 56. The plethysmometer was used after calibration to a weight of 3 mL. The measured area was marked by drawing a line, and measurement was conducted adjacent to the ankle. Hind paw swelling increase (%) and hind paw swelling inhibition (%) were calculated using the following equations.
In order to observe the degree of bone damage in the hind paw, microcomputed tomography (micro-CT) was performed using a SkyScan 1172 (SkyScan, Aartselaar, Belgium). The total volume (TV; mm^3), bone volume (BV; mm^3) and bone volume fraction (BV/TV; %) were analyzed using CTAn software. On the 57th day, rats were sacrificed and subjected to histological analysis. Both hind paws and joints were collected, fixed in 10% buffered formalin, and demineralized in 30% citrate-buffered formic acid at 4° ° C. for 3 days. Paraffin blocks were produced, sliced into sections with a thickness of 4 μm and stained with hematoxylin and eosin (H&E), and then the pathological score was evaluated with an optical microscope. The joint inflammation index was measured based on the following criteria (Shiozawa et al., J Clin Invest. 1997; 99 (6):1210-1216). 0, normal synovium; 1, synovial membrane hypertrophy and cell infiltrates; 2, pannus and cartilage erosion; 3, major erosion of cartilage and subchondral bone; and 4, loss of joint integrity and ankylosis.
The rats were sacrificed and systemic blood was collected, and the concentrations of TNF-α and IL-6 in the blood were measured with an ELISA kit (R&D, Minneapolis, MN, USA).

T1 sequence (Q9UQL6 whole entry, species assumed): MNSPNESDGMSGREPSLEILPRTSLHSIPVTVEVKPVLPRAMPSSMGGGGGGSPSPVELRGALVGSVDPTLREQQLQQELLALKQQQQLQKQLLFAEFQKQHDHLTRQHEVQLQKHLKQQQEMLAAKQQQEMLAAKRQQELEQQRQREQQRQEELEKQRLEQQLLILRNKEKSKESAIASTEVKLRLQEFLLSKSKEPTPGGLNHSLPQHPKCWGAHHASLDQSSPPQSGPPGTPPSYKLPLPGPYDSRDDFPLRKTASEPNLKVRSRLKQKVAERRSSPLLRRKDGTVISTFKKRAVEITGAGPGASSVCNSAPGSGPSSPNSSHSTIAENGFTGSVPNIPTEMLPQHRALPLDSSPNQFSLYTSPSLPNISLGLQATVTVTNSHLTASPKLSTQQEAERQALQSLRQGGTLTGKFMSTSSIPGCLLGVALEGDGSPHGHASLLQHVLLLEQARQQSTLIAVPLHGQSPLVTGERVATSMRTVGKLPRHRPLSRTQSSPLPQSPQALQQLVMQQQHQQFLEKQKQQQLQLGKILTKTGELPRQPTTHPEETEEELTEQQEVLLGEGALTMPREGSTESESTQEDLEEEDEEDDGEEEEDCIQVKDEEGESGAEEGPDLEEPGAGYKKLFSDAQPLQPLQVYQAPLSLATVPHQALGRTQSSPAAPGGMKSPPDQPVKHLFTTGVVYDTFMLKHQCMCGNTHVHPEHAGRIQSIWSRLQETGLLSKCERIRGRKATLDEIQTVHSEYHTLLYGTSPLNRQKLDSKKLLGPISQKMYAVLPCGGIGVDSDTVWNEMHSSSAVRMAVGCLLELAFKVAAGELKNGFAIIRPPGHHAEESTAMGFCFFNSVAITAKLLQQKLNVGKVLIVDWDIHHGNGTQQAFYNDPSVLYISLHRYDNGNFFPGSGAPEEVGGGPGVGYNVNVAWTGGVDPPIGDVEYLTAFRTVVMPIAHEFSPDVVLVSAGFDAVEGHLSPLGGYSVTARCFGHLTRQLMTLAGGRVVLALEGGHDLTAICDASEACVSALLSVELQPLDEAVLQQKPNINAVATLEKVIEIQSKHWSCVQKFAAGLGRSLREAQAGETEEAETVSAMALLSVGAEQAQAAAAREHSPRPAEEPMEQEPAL

Compound | kd (HDAC5 protein) | kon (HDAC5 protein) | Kd (HDAC5 protein) | further results
CSCC[C@H](NC(=O)[C@H](CS)NC(=O)[C@H](CCCCN)NC(=O)[C@H](CCCNC(=N)N)NC(=O)CNC(=O)[C@H](CCCNC(=N)N)NC(=O)[C@@H](NC(=O)[C@H](CO)NC(=O)[C@H](CS)NC(=O)[C@H](CCCCN)NC(=O)CN)[C@@H](C)O)C(=O)N[C@@H](CCCNC(=N)N)C(=O)N[C@@H](CCCNC(=N)N)C(=O)N[C@@H](CCCCN)C(=O)N[C@@H](CCCCN)C(=O)O [SEQ ID NO: 2] (H-GKCSTRGRKCMRRKK-OH; N-terminus and C-terminus assumed) | 0.06872 s⁻¹ | 74400 M⁻¹ s⁻¹ | – | –
CSCC[C@H](NC(=O)[C@H](CCCCN)NC(=O)[C@H](CCCNC(=N)N)NC(=O)CNC(=O)[C@H](CCCNC(=N)N)NC(=O)[C@@H](NC(=O)[C@H](CO)NC(=O)[C@H](CS)NC(=O)[C@H](CCCCN)NC(=O)CN)[C@@H](C)O)C(=O)N[C@@H](CS)C(=O)N[C@@H](CCCNC(=N)N)C(=O)N[C@@H](CCCNC(=N)N)C(=O)N[C@@H](CCCCN)C(=O)N[C@@H](CCCCN)C(=O)O [SEQ ID NO: 3] (H-GKCSTRGRKMCRRKK-OH; N-terminus and C-terminus assumed) | 0.05953 s⁻¹ | 82100 M⁻¹ s⁻¹ | – | –
CSCC[C@H](NC(=O)[C@H](CCCCN)NC(=O)[C@H](CCCNC(=N)N)NC(=O)CNC(=O)[C@H](CCCNC(=N)N)NC(=O)[C@@H](NC(=O)[C@H](CO)NC(=O)[C@H](CS)NC(=O)[C@H](CCCCN)NC(=O)CN)[C@@H](C)O)C(=O)N[C@@H](CCSC)C(=O)N[C@@H](CCCNC(=N)N)C(=O)N[C@@H](CCCNC(=N)N)C(=O)N[C@@H](CCCCN)C(=O)N[C@@H](CCCCN)C(=O)O [SEQ ID NO: 4] (H-GKCSTRGRKMMRRKK-OH; N-terminus and C-terminus assumed) | 0.06788 s⁻¹ | 72200 M⁻¹ s⁻¹ | 0.94 µM | –
CSCC[C@H](NC(=O)[C@H](CCCCN)NC(=O)CN)C(=O)N[C@@H](CO)C(=O)N[C@H](C(=O)N[C@@H](CCCNC(=N)N)C(=O)NCC(=O)N[C@@H](CCCNC(=N)N)C(=O)N[C@@H](CCCCN)C(=O)N[C@@H](CS)C(=O)N[C@@H](CS)C(=O)N[C@@H](CCCNC(=N)N)C(=O)N[C@@H](CCCNC(=N)N)C(=O)N[C@@H](CCCCN)C(=O)N[C@@H](CCCCN)C(=O)O)[C@@H](C)O [SEQ ID NO: 5] (H-GKMSTRGRKCCRRKK-OH; N-terminus and C-terminus assumed) | 0.03088 s⁻¹ | 65900 M⁻¹ s⁻¹ | – | –
CSCC[C@H](NC(=O)[C@H](CCCCN)NC(=O)CN)C(=O)N[C@@H](CO)C(=O)N[C@H](C(=O)N[C@@H](CCCNC(=N)N)C(=O)NCC(=O)N[C@@H](CCCNC(=N)N)C(=O)N[C@@H](CCCCN)C(=O)N[C@@H](CCSC)C(=O)N[C@@H](CS)C(=O)N[C@@H](CCCNC(=N)N)C(=O)N[C@@H](CCCNC(=N)N)C(=O)N[C@@H](CCCCN)C(=O)N[C@@H](CCCCN)C(=O)O)[C@@H](C)O [SEQ ID NO: 6] (H-GKMSTRGRKMCRRKK-OH; N-terminus and C-terminus assumed) | 0.04463 s⁻¹ | 100000 M⁻¹ s⁻¹ | 0.444 µM | –
CSCC[C@H](NC(=O)[C@H](CCCCN)NC(=O)CN)C(=O)N[C@@H](CO)C(=O)N[C@H](C(=O)N[C@@H](CCCNC(=N)N)C(=O)NCC(=O)N[C@@H](CCCNC(=N)N)C(=O)N[C@@H](CCCCN)C(=O)N[C@@H](CS)C(=O)N[C@@H](CCSC)C(=O)N[C@@H](CCCNC(=N)N)C(=O)N[C@@H](CCCNC(=N)N)C(=O)N[C@@H](CCCCN)C(=O)N[C@@H](CCCCN)C(=O)O)[C@@H](C)O [SEQ ID NO: 7] (H-GKMSTRGRKCMRRKK-OH; N-terminus and C-terminus assumed) | 0.04757 s⁻¹ | 67500 M⁻¹ s⁻¹ | 0.704 µM | –
CSCC[C@H](NC(=O)[C@H](CCCCN)NC(=O)CN)C(=O)N[C@@H](CO)C(=O)N[C@H](C(=O)N[C@@H](CCCNC(=N)N)C(=O)NCC(=O)N[C@@H](CCCNC(=N)N)C(=O)N[C@@H](CCCCN)C(=O)N[C@@H](CCSC)C(=O)N[C@@H](CCSC)C(=O)N[C@@H](CCCNC(=N)N)C(=O)N[C@@H](CCCNC(=N)N)C(=O)N[C@@H](CCCCN)C(=O)N[C@@H](CCCCN)C(=O)O)[C@@H](C)O [SEQ ID NO: 8] (H-GKMSTRGRKMMRRKK-OH; N-terminus and C-terminus assumed) | 0.004776 s⁻¹ | 55000 M⁻¹ s⁻¹ | 0.0868 µM | –
etanercept [reference compound] | – | – | – | Concentration of IL-6 in blood ([1]; ELISA, high concentration of peptide or etanercept, CIA-induced group 109 pg/ml): 24 pg/mL; Concentration of TNF-α in blood ([1]; ELISA, high concentration of peptide or etanercept, CIA-induced group 128 pg/ml): 39 pg/mL; Microscopic observation of joint tissues (inflammation, H&E) ([1]; FIG. 4A): results similar to the CIA-induced group injected with a low concentration of SEQ ID NO: 1; Hind paw swelling inhibition (%) ([1]; etanercept 10 mg/kg intraperitoneally): 37%; Hind paw swelling (%) ([1]; peptide 15 or 30 mg/kg subcutaneously twice a week, etanercept 10 mg/kg intraperitoneally three times a week, 4 weeks): decreased hind paw swelling (%) within 35 to 56 days (P<0.05); Inflammation index ([1]; score 0-4, CIA-induced group 3.3±0.67): 2.3±1.16
